{"source": "patent US20210189327A1", "about": "“3D […] CONSTRUCTS AND METHODS OF MAKING THEREOF” (McMaster University, priority 2019, published 2021)", "tested_on": "MCF-7 cells", "assay": "Effect of actin cytoskeleton impairment on spheroid formation and consolidation", "assay_type": "cell-based", "conditions": "100 nM; 1 hr pretreatment without (T-nT) or with (T-T) the same concentration during spheroid formation; 5×10^5 MCF-7 cells in large wells; P-value>0.05", "protocol": "Rapid Formation of Spheroidal Tissue Constructs. In order to form spheroidal tissue constructs, PDMS molds in the form of circular wells with spherical bottom were used. These molds were prepared by mixing PDMS and its curing agent with the ratio of 10:1 and casting it on the Poly lactic acid (PLA) master mold with negative of the required patterns. Master molds were designed using software Solidworks© and 3D printed using a Stereolithography (SLA) based 3D printer (Objet 24 Desktop 3D printer). A large and small well size were created with diameters of 4 and 2.5 mm respectively. MCF-7 (Michigan Cancer Foundation-7, a breast cancer cell line) cells were cultured in Dulbecco's Modified Eagle Medium (DMEM) (Thermofisher, high glucose) supplemented with 10% V/V fetal bovine serum (FBS) (Thermofisher, US origin) and 1% Penicillin-Streptomycin (Thermofisher, 10000 U/mL) until 70% confluent. Cells were trypsinized and detached from tissue culture flasks. Required number of cells (10^5 or 10^6) were aliquoted, precipitated using centrifugation, and resuspended in proper amount of medium (5 μL for small wells, 15 μL for large wells). The cell solution then was added to the equal amount of bovine collagen type I (Thermofisher, 5 mg/mL) and mixed to get a uniform distribution of cells. […]", "data": [{"compound": "C/C1=C/C(=O)O[C@@H]2C[C@@H](CC[C@H](C)/C=C\\C=C\\CC1)O[C@@](O)([C@@H]1CSC(=O)N1)C2", "note": "[latrunculin A, Latrunculin A]", "values": [{"measurement": "difference between spheroid radii after 6 hrs versus untreated control (nT-nT)", "value": "no meaningful difference"}]}]}
